≈ marks a conversion by molar mass, not a printed value.
Tested on: not listed separately
Assay: Cytotoxicity against Homo sapiens (human) HEL cells assessed as alteration in cell morphology by microscopy
Format: cell-based
Settings: not given
Work on O=C(N/N=C/c1ccc(Br)cc1)c1cccnc1 yielded a CC50 of 48 µg/mL (≈ 158 µM) and an MCC of over 100 µg/mL.
With O=C(N/N=C/c1ccc(F)cc1)c1cccnc1 the CC50 was over 100 µg/mL and the MCC was over 100 µg/mL.

Tested on: Candida albicans
Assay: Antimicrobial activity against Candida albicans after 7 days by serial dilution method
Format: functional
Parameters: unit not given here
Settings: not given
With O=C(N/N=C/c1ccc(Br)cc1)c1cccnc1 the “-logMIC” value was 1.39.
For O=C(N/N=C/c1ccc(F)cc1)c1cccnc1, the “-logMIC” value was 1.59.

Tested on: Human alphaherpesvirus 1
Assay: Antiviral activity against TK(-) aciclovir-resistant Human herpesvirus 1 strain KOS infected in human HEL cells assessed as inhibition of virus-induced cytopathicity
Format: functional, organism-based
Settings: Human alphaherpesvirus 1, KOS
O=C(N/N=C/c1ccc(Br)cc1)c1cccnc1 showed an EC50 of over 100 µg/mL.
O=C(N/N=C/c1ccc(F)cc1)c1cccnc1 gave an EC50 of over 100 µg/mL.

Tested on: Sindbis virus
Assay: Antiviral activity against Sindbis virus infected Vero cells assessed as inhibition of virus-induced cytopathicity
Format: functional, organism-based
Settings: not given
With O=C(N/N=C/c1ccc(Br)cc1)c1cccnc1 the EC50 was over 100 µg/mL.
O=C(N/N=C/c1ccc(F)cc1)c1cccnc1 gave an EC50 of over 100 µg/mL.

Tested on: Human herpesvirus 3 strain Oka vaccine
Assay: Antiviral activity against Human herpesvirus 3 strain Oka vaccine OKA 07-1 (Varicella zoster virus) infected in human HEL cells assessed as inhibition of virus-induced cytopathicity
Format: functional, organism-based
Settings: Human alphaherpesvirus 3, OKA 07-1, HEL
In the case of O=C(N/N=C/c1ccc(Br)cc1)c1cccnc1, the EC50 is reported as over 100 µg/mL.
In the case of O=C(N/N=C/c1ccc(F)cc1)c1cccnc1, the EC50 is reported as over 100 µg/mL.

Tested on: not listed separately
Assay: Cytotoxicity against Chlorocebus aethiops (African green monkey) Vero cells assessed as alteration in cell morphology by microscopy
Format: cell-based
Settings: chlorocebus sabaeus
Compound O=C(N/N=C/c1ccc(Br)cc1)c1cccnc1 has an MCC of over 100 µg/mL.
For O=C(N/N=C/c1ccc(F)cc1)c1cccnc1, the MCC was over 100 µg/mL.

Tested on: Coxsackievirus B4
Assay: Antiviral activity against Human coxsackievirus B4 infected Vero cells assessed as inhibition of virus-induced cytopathicity
Format: functional, organism-based
Settings: Enterovirus B
Work on O=C(N/N=C/c1ccc(Br)cc1)c1cccnc1 yielded an EC50 of over 100 µg/mL.
Compound O=C(N/N=C/c1ccc(F)cc1)c1cccnc1 has an EC50 of over 100 µg/mL.

Tested on: not listed separately
Assay: Cytotoxicity against Homo sapiens (human) HeLa cells assessed as alteration in cell morphology by microscopy
Format: cell-based
Settings: not given
With O=C(N/N=C/c1ccc(Br)cc1)c1cccnc1 the MCC was over 100 µg/mL.
O=C(N/N=C/c1ccc(F)cc1)c1cccnc1 showed an MCC of over 100 µg/mL.

Tested on: not listed separately
Assay: Cytotoxicity against Homo sapiens (human) MT4 cells after 4 days by MTT assay
Format: cell-based
Settings: not given
With O=C(N/N=C/c1ccc(Br)cc1)c1cccnc1 the CC50 at 96 h was 61 µg/mL (≈ 201 µM).
Work on O=C(N/N=C/c1ccc(F)cc1)c1cccnc1 yielded a CC50 at 96 h of over 125 µg/mL.

Tested on: Human immunodeficiency virus 2
Assay: Antiviral activity against Human immunodeficiency virus type 2 (ISOLATE ROD) infected MT4 cells assessed as inhibition of virus-induced cytopathic effect after 4 days by MTT assay
Format: functional, organism-based
Settings: Human immunodeficiency virus 2, ISOLATE ROD, MT4, 96 h
O=C(N/N=C/c1ccc(Br)cc1)c1cccnc1 showed an EC50 of over 61 µg/mL.
O=C(N/N=C/c1ccc(F)cc1)c1cccnc1 showed an EC50 of over 125 µg/mL.

Tested on: Escherichia coli
Assay: Antimicrobial activity against Escherichia coli after 24 hr by serial dilution method
Format: functional
Parameters: unit not given here
Settings: not given
For O=C(N/N=C/c1ccc(Br)cc1)c1cccnc1, the “-logMIC” value was 1.39.
In the case of O=C(N/N=C/c1ccc(F)cc1)c1cccnc1, the “-logMIC” value is reported as 1.29.

Tested on: Human alphaherpesvirus 2
Assay: Antiviral activity against Human herpesvirus 2 strain G infected human HEL cells assessed as inhibition of virus-induced cytopathicity by microscopy
Format: functional, organism-based
Settings: Human alphaherpesvirus 2, strain G
Compound O=C(N/N=C/c1ccc(Br)cc1)c1cccnc1 has an EC50 of over 100 µg/mL.
O=C(N/N=C/c1ccc(F)cc1)c1cccnc1 showed an EC50 of over 100 µg/mL.

Tested on: Candida albicans
Assay: Antimicrobial activity against Candida albicans after 2 days by serial dilution method
Format: functional
Parameters: unit not given here
Settings: not given
For O=C(N/N=C/c1ccc(Br)cc1)c1cccnc1, the “-logMIC” value was 1.39.
With O=C(N/N=C/c1ccc(F)cc1)c1cccnc1 the “-logMIC” value was 1.29.

Tested on: Bacillus subtilis
Assay: Antimicrobial activity against Bacillus subtilis after 24 hr by serial dilution method
Format: functional
Parameters: unit not given here
Settings: not given
With O=C(N/N=C/c1ccc(Br)cc1)c1cccnc1 the “-logMIC” value was 1.39.
In the case of O=C(N/N=C/c1ccc(F)cc1)c1cccnc1, the “-logMIC” value is reported as 1.29.

Tested on: Respiratory syncytial virus
Assay: Antiviral activity against Respiratory syncytial virus infected human HeLa cells assessed as inhibition of virus-induced cytopathicity by microscopy
Format: functional, organism-based
Settings: not given
O=C(N/N=C/c1ccc(Br)cc1)c1cccnc1 showed an EC50 of over 100 µg/mL.
For O=C(N/N=C/c1ccc(F)cc1)c1cccnc1, the EC50 was over 100 µg/mL.

Tested on: Coxsackievirus B4
Assay: Antiviral activity against Human coxsackievirus B4 infected human HeLa cells assessed as inhibition of virus-induced cytopathicity by microscopy
Format: functional, organism-based
Settings: Enterovirus B
Work on O=C(N/N=C/c1ccc(Br)cc1)c1cccnc1 yielded an EC50 of over 100 µg/mL.
Work on O=C(N/N=C/c1ccc(F)cc1)c1cccnc1 yielded an EC50 of over 100 µg/mL.

Tested on: Human immunodeficiency virus 1
Assay: Antiviral activity against Human immunodeficiency virus 1 IIIB infected MT4 cells assessed as inhibition of virus-induced cytopathic effect after 4 days by MTT assay
Format: functional, organism-based
Settings: MT4, 96 h
Work on O=C(N/N=C/c1ccc(Br)cc1)c1cccnc1 yielded an EC50 of over 61 µg/mL.
In the case of O=C(N/N=C/c1ccc(F)cc1)c1cccnc1, the EC50 is reported as over 125 µg/mL.

Tested on: Mycobacterium tuberculosis
Assay: Antimicrobial activity against Mycobacterium tuberculosis by agar dilution method
Format: functional
Settings: not given
Compound O=C(N/N=C/c1ccc(Br)cc1)c1cccnc1 has an MIC of 25 µg/mL (≈ 82.2 µM).
O=C(N/N=C/c1ccc(F)cc1)c1cccnc1 gave an MIC of 25 µg/mL (≈ 103 µM).

Tested on: Human respirovirus 3
Assay: Antiviral activity against Human parainfluenza virus 3 infected Vero cells assessed as inhibition of virus-induced cytopathicity by microscopy
Format: functional, organism-based
Settings: Human respirovirus 3, Vero
For O=C(N/N=C/c1ccc(Br)cc1)c1cccnc1, the EC50 was over 100 µg/mL.
O=C(N/N=C/c1ccc(F)cc1)c1cccnc1 gave an EC50 of over 100 µg/mL.

Tested on: Vaccinia virus
Assay: Antiviral activity against Vaccinia virus infected human HEL cells assessed as inhibition of virus-induced cytopathicity by microscopy
Format: functional, organism-based
Settings: Orthopoxvirus vaccinia
Compound O=C(N/N=C/c1ccc(Br)cc1)c1cccnc1 has an EC50 of over 100 µg/mL.
For O=C(N/N=C/c1ccc(F)cc1)c1cccnc1, the EC50 was over 100 µg/mL.

Tested on: Staphylococcus aureus
Assay: Antimicrobial activity against Staphylococcus aureus after 24 hr by serial dilution method
Format: functional
Parameters: unit not given here
Settings: not given
With O=C(N/N=C/c1ccc(Br)cc1)c1cccnc1 the “-logMIC” value was 1.09.
In the case of O=C(N/N=C/c1ccc(F)cc1)c1cccnc1, the “-logMIC” value is reported as 1.29.

Tested on: Human herpesvirus 5 strain AD169
Assay: Antiviral activity against Human herpesvirus 5 strain AD169 Davis infected human HEL cells assessed as inhibition of virus-induced cytopathicity by microscopy
Format: functional, organism-based
Settings: Human betaherpesvirus 5, Davis
In the case of O=C(N/N=C/c1ccc(Br)cc1)c1cccnc1, the EC50 is reported as over 100 µg/mL.
O=C(N/N=C/c1ccc(F)cc1)c1cccnc1 gave an EC50 of over 100 µg/mL.

Tested on: Punta Toro virus
Assay: Antiviral activity against Punta Toro virus infected Vero cells assessed as inhibition of virus-induced cytopathicity
Format: functional, organism-based
Settings: not given
Compound O=C(N/N=C/c1ccc(Br)cc1)c1cccnc1 has an EC50 of over 100 µg/mL.
Work on O=C(N/N=C/c1ccc(F)cc1)c1cccnc1 yielded an EC50 of over 100 µg/mL.

Tested on: Human alphaherpesvirus 1
Assay: Antiviral activity against Human herpesvirus 1 strain KOS infected in human HEL cells assessed as inhibition of virus-induced cytopathicity by microscopy by microscopy
Format: functional, organism-based
Settings: Human alphaherpesvirus 1, KOS
O=C(N/N=C/c1ccc(Br)cc1)c1cccnc1 showed an EC50 of over 100 µg/mL.
Compound O=C(N/N=C/c1ccc(F)cc1)c1cccnc1 has an EC50 of over 100 µg/mL.

Tested on: Mammalian orthoreovirus 1
Assay: Antiviral activity against Mammalian orthoreovirus 1 infected Vero cells assessed as inhibition of virus-induced cytopathicity by microscopy
Format: functional, organism-based
Settings: Mammalian orthoreovirus 1, Vero
O=C(N/N=C/c1ccc(Br)cc1)c1cccnc1 gave an EC50 of over 100 µg/mL.
Work on O=C(N/N=C/c1ccc(F)cc1)c1cccnc1 yielded an EC50 of over 100 µg/mL.

Tested on: Vesicular stomatitis virus
Assay: Antiviral activity against Vesicular stomatitis virus infected human HeLa cells assessed as inhibition of virus-induced cytopathicity by microscopy
Format: functional, organism-based
Settings: not given
With O=C(N/N=C/c1ccc(Br)cc1)c1cccnc1 the EC50 was over 100 µg/mL.
In the case of O=C(N/N=C/c1ccc(F)cc1)c1cccnc1, the EC50 is reported as over 100 µg/mL.
